Here are results for 5 compounds from patent publication US11746087B1, “C4-carboxylic acid-substituted tryptamine derivatives and methods of using” (priority 2022, dated 2023).

The target of assay [1] is T1, ADRA2A (Homo sapiens, UniProt P08913).
T1 sequence (P08913 1-465): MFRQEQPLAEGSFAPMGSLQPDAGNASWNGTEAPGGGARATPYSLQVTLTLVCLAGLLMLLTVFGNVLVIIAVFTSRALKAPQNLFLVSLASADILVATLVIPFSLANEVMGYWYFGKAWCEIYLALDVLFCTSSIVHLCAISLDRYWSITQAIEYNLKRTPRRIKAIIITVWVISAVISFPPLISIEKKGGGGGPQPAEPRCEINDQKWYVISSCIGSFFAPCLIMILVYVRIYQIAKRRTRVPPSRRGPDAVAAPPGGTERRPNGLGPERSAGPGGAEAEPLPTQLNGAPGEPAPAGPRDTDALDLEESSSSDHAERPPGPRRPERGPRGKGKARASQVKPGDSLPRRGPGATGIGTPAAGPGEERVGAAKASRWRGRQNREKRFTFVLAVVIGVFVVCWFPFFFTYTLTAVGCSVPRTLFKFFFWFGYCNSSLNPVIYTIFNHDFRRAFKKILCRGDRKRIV
The experiment in a line: EFC-based cAMP secondary messenger assay, agonist mode. It counts as cell-based.

The target of assay [2] is T1, ADRA2A. The experiment in a line: EFC-based cAMP secondary messenger assay, antagonist mode. It counts as cell-based.
The target in the next assay is DRD1 (Homo sapiens, UniProt P21728). Described as above. It counts as cell-based.
Another assay has as its target HTR1B (5-HTR1B) (Homo sapiens, UniProt P28222). The assay is described as above. It counts as cell-based.
Another assay addresses DRD2S (Homo sapiens, UniProt P14416). Described as above. It counts as cell-based.
The target in a further assay is T2, CHRM1 (Homo sapiens, UniProt P11229).
T2 sequence (P11229 1-460): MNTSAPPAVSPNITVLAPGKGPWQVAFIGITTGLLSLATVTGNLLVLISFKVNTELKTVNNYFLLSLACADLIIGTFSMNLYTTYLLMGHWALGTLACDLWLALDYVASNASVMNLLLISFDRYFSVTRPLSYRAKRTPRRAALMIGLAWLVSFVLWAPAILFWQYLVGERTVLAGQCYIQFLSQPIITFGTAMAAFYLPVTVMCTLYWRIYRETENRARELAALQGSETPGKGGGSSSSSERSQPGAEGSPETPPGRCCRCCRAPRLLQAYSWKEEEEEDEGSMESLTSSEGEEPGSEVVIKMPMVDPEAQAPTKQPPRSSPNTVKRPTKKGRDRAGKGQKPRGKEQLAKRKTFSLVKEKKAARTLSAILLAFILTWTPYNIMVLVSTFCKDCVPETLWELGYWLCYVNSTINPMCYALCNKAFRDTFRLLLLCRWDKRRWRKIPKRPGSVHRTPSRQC
Put plainly: Calcium secondary messenger assay, agonist mode. It counts as cell-based.

The next assay addresses NET (Homo sapiens, UniProt P23975). Put plainly: Neurotransmitter transporter uptake assay, blocker. It is filed as cell-based.
A further assay concerns the target T3, 5-HT2A receptor (Mus musculus, UniProt P35363).
T3 construct: 8-week old C57BL/6-Elite male and female mice were obtained from Charles River; tissue Charles River; host or cells: living C57BL/6-Elite mice (neuronal receptor, in vivo)
The experiment in a line: Drug-induced Head Twitch Response (HTR). It is filed as in vivo. The settings on record: C57BL/6 mice; 1 mg/kg i.p.; 15-to-30-minute window after administration.

Another assay deals with HTR2B (5-HT2B) (Homo sapiens, UniProt P41595). Put plainly: Calcium secondary messenger assay, agonist mode. It counts as cell-based.
For the next assay, the target named is T4, 5-HT1A receptor (Homo sapiens, UniProt P08908).
T4 construct: host or cells: CHO-K1 (co-expressing Ga15)
T4 sequence (P08908 1-422): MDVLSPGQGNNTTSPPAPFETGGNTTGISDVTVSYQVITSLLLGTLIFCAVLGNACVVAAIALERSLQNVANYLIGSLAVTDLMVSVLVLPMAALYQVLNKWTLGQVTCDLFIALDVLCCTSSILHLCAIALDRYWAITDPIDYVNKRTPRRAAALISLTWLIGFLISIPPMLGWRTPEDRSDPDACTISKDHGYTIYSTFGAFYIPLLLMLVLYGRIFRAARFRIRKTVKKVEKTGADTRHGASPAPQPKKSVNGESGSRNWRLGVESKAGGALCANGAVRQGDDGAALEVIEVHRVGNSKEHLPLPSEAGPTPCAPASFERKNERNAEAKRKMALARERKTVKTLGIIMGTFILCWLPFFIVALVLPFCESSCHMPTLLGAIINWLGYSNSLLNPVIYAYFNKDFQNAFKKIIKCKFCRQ
The experiment in a line: cAMP-Glo assay in +5-HT1A vs −5-HT1A CHO-K1 cells. It is filed as cell-based. The note with it: cAMP assay with 4 mM forskolin.

HTR2B (5-HT2B), sequence (P41595 whole entry): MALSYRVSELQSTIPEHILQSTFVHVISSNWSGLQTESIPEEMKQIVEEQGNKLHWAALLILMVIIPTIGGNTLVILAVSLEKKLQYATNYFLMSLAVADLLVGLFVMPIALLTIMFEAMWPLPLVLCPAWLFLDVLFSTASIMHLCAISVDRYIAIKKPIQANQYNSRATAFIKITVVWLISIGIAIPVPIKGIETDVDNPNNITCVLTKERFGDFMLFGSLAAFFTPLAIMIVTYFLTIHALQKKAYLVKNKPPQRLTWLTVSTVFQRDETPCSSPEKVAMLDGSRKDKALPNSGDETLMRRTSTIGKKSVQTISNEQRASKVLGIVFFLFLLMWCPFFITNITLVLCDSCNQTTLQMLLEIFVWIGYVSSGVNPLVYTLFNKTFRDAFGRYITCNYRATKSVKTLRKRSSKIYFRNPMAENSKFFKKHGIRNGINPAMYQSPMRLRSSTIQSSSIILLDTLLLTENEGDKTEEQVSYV
NET, sequence (P23975 whole entry): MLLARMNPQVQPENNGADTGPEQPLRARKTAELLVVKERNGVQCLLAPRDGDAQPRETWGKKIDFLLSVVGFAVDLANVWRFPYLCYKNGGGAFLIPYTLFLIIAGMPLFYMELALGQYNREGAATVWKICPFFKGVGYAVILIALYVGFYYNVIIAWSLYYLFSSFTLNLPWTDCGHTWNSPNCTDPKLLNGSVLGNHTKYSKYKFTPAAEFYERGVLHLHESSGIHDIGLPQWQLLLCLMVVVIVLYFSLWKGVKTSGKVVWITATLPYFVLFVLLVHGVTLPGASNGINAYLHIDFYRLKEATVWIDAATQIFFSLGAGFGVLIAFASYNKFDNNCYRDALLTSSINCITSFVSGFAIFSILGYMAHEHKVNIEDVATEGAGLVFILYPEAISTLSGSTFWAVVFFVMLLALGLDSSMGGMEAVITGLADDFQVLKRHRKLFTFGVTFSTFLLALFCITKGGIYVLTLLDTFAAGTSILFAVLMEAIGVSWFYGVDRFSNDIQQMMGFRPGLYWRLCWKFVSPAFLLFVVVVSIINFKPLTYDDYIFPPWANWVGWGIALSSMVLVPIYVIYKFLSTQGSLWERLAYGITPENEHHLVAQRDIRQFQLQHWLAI
T3 sequence (P35363 whole entry): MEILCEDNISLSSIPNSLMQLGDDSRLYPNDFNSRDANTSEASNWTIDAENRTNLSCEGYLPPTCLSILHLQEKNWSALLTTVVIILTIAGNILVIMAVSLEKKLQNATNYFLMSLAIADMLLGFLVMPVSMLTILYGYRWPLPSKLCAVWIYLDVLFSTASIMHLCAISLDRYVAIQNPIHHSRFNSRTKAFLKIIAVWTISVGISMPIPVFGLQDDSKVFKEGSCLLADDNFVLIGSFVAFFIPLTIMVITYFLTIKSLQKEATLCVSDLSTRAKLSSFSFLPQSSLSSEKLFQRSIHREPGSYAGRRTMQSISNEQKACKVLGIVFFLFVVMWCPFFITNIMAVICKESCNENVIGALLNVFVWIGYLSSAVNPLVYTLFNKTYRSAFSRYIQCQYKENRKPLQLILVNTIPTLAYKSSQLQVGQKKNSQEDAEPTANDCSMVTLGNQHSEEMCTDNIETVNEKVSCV
DRD1, sequence (P21728 whole entry): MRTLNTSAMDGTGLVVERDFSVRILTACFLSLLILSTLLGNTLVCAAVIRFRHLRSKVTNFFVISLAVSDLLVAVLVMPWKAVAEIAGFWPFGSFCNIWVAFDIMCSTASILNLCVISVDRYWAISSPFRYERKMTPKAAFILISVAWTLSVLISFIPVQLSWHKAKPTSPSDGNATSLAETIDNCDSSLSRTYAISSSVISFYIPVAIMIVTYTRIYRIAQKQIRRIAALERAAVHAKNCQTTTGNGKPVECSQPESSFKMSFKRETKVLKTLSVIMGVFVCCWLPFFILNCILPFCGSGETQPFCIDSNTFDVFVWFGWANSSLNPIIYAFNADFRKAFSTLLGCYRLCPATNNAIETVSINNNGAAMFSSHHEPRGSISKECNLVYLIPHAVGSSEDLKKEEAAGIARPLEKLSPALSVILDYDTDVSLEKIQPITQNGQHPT
HTR1B (5-HTR1B), sequence (P28222 whole entry): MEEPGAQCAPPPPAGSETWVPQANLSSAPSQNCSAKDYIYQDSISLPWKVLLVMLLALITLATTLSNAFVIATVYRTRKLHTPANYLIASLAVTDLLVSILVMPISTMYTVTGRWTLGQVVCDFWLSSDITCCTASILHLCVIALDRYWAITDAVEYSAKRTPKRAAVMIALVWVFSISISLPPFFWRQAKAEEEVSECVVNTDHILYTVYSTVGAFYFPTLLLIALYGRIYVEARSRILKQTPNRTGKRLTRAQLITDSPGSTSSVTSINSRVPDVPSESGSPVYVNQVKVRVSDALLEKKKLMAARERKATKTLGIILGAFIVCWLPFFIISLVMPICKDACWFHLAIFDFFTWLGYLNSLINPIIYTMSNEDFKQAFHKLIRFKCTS
DRD2S, sequence (P14416 1-414 isoform P14416-2): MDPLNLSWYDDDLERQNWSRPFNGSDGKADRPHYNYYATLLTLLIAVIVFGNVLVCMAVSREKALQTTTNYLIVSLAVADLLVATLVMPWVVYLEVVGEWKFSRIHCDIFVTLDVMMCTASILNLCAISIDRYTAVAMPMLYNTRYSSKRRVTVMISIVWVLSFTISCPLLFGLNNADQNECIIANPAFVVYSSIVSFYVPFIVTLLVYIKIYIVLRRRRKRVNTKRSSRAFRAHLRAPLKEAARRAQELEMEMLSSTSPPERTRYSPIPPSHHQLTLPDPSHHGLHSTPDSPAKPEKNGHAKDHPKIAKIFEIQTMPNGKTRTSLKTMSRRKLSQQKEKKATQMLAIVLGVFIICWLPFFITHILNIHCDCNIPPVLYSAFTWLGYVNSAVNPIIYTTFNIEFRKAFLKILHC

For the compound `CN(C)CCc1c[nH]c2cccc(OC(=O)CC3CC3)c12` [C(IV)], the EC50 on ADRA2A [1], at CHRM1 and at HTR2B (5-HT2B) was greater than 100 µM in each case. Also, the IC50 is greater than 100 µM against ADRA2A [2]; 32.9 µM at DRD1; greater than 100 µM against HTR1B (5-HTR1B); greater than 100 µM on DRD2S; greater than 100 µM at NET. Further, the “Head Twitch Response (HTR) incidence relative to vehicle” value on 5-HT2A receptor is given as “Elevated incidences of HTR”. For the same compound, on 5-HT1A receptor, the “5-HT1A receptor modulation, +5-HT1A vs −5-HT1A cultures” value is reported as “significant receptor modulation”.
As for `COc1ccc(C(=O)Oc2cccc3[nH]cc(CCN(C)C)c23)cc1` [C(V)], the half-maximal effective concentration (EC50) at ADRA2A [1], on CHRM1 and at HTR2B (5-HT2B) was greater than 100 µM in each case. Besides, the IC50 against ADRA2A [2] is greater than 100 µM; at DRD1, 12 µM; against HTR1B (5-HTR1B), greater than 100 µM; against DRD2S, 1.78 µM; at NET, greater than 100 µM. Further, the “Head Twitch Response (HTR) incidence relative to vehicle” value on 5-HT2A receptor is on record as “Elevated incidences of HTR”. The “5-HT1A receptor modulation, +5-HT1A vs −5-HT1A cultures” value at 5-HT1A receptor is given as “mild receptor modulation at higher ligand concentrations”.
`CN(C)CCc1c[nH]c2cccc(OC(=O)c3c(F)c(F)c(F)c(F)c3F)c12` [C(VI)]: the EC50 at ADRA2A [1] is 65.1 µM; on CHRM1 it was greater than 100 µM; on HTR2B (5-HT2B) it was greater than 100 µM. Besides, the IC50 on ADRA2A [2] is greater than 100 µM; against DRD1, 51.6 µM; against HTR1B (5-HTR1B), greater than 100 µM; at DRD2S, greater than 100 µM; at NET, greater than 100 µM. Further, at 5-HT2A receptor, the “Head Twitch Response (HTR) incidence relative to vehicle” value is “Elevated incidences of HTR”. Besides, the “5-HT1A receptor modulation, +5-HT1A vs −5-HT1A cultures” value at 5-HT1A receptor is “no receptor modulation at higher ligand concentrations”.
With `CN(C)CCc1c[nH]c2cccc(OC(=O)c3cccc4c3OCCO4)c12` [C(XX)], the EC50 on ADRA2A [1], at CHRM1 and at HTR2B (5-HT2B) was greater than 100 µM throughout. Moreover, the IC50 was 47.9 µM on ADRA2A [2]; 11.1 µM at DRD1; greater than 100 µM against HTR1B (5-HTR1B); greater than 100 µM at DRD2S; 15 µM against NET. In addition, the “Head Twitch Response (HTR) incidence relative to vehicle” value at 5-HT2A receptor is “Elevated incidences of HTR”. On 5-HT1A receptor, the “5-HT1A receptor modulation, +5-HT1A vs −5-HT1A cultures” value is “significant receptor modulation”.
For `CN(C)CCc1c[nH]c2cccc(OC(=O)c3ccc(Br)cc3)c12` [C(I)], the EC50 on ADRA2A [1], on CHRM1 and on HTR2B (5-HT2B) was greater than 100 µM each time. The IC50 is 18.4 µM on ADRA2A [2]; 24.5 µM on DRD1; greater than 100 µM against HTR1B (5-HTR1B); 91.1 µM on DRD2S; 47 µM at NET. For the same compound, at 5-HT2A receptor, the “Head Twitch Response (HTR) incidence relative to vehicle” value is recorded as “Elevated incidences of HTR”. Further, on 5-HT1A receptor, the “5-HT1A receptor modulation, +5-HT1A vs −5-HT1A cultures” value is given as “mild receptor modulation at higher ligand concentrations”.
